In the supplement of paper PMC10307832:

Tests used:
Test in all cases: relative viability (nuclei count vs DMSO), 5 days (fraction); higher = more cells survive
A-427 = system: A-427
Method in brief: (§1)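 One day after seeding in 1536-well plates, lung cancer cell lines were dosed by pin tool. Dosing was either single-drug or a fixed anchor-drug dose plus five library-drug doses (not always all listed) in √10 steps. After 5 days, nuclei were stained in one fix-and-stain step and counted on 4× images, and relative viability is the nuclei count of treated wells over that of vehicle wells, given as the median of duplicate plates.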

BEN = system: BEN
Method in brief: as §1

EKVX = system: EKVX
Method in brief: as §1

LC-2-ad = system: LC-2-ad
Method in brief: as §1

LCLC-97TM1 = system: LCLC-97TM1
Method in brief: as §1

LOU-NH91 = system: LOU-NH91
Method in brief: as §1

LU99A = system: LU99A
Method in brief: as §1

NCI-H1355 = system: NCI-H1355
Method in brief: as §1

NCI-H1650 = system: NCI-H1650
Method in brief: as §1

NCI-H1666 = system: NCI-H1666
Method in brief: as §1

NCI-H1793 = system: NCI-H1793
Method in brief: as §1

NCI-H1915 = system: NCI-H1915
Method in brief: as §1

NCI-H1993 = system: NCI-H1993
Method in brief: as §1

NCI-H2228 = system: NCI-H2228
Method in brief: as §1

NCI-H2347 = system: NCI-H2347
Method in brief: as §1

NCI-H23 = system: NCI-H23
Method in brief: as §1

NCI-H460 = system: NCI-H460
Method in brief: as §1

NCI-H520 = system: NCI-H520
Method in brief: as §1

NCI-H650 = system: NCI-H650
Method in brief: as §1

NCI-H838 = system: NCI-H838
Method in brief: as §1

PC-3 [JPC-3] = system: PC-3 [JPC-3]
Method in brief: as §1

RERF-LC-KJ = system: RERF-LC-KJ
Method in brief: as §1

SW 1573 = system: SW 1573
Method in brief: as §1

## CCCCCCCCCCCC1=C(O)C(=O)C=C(O)C1=O [Embelin] + CCNC(=O)c1noc(-c2cc(C(C)C)c(O)cc2O)c1-c1ccc(CN2CCOCC2)cc1 [Luminespib] (partner 0.01 µM)
A-427; first compound 0.08 µM
  relative viability: 0.976
A-427; first compound 0.8 µM
  relative viability: 0.998
A-427; first compound 2.53 µM
  relative viability: 0.966
A-427; first compound 8 µM
  relative viability: 1.18
BEN; first compound 0.08 µM
  relative viability: 0.29
BEN; first compound 0.8 µM
  relative viability: 1.12
BEN; first compound 2.53 µM
  relative viability: 0.435
BEN; first compound 8 µM
  relative viability: 0.517
EKVX; first compound 0.08 µM
  relative viability: 0.864
EKVX; first compound 0.8 µM
  relative viability: 0.888
EKVX; first compound 2.53 µM
  relative viability: 0.876
EKVX; first compound 8 µM
  relative viability: 0.966
LC-2-ad; first compound 0.08 µM
  relative viability: 0.892
LC-2-ad; first compound 0.8 µM
  relative viability: 1.28
LC-2-ad; first compound 2.53 µM
  relative viability: 1.1
LC-2-ad; first compound 8 µM
  relative viability: 0.806
LCLC-97TM1; first compound 0.08 µM
  relative viability: 0.78
LCLC-97TM1; first compound 0.8 µM
  relative viability: 0.899
LCLC-97TM1; first compound 2.53 µM
  relative viability: 0.907
LCLC-97TM1; first compound 8 µM
  relative viability: 0.872
LOU-NH91; first compound 0.08 µM
  relative viability: 0.429
LOU-NH91; first compound 0.8 µM
  relative viability: 0.369
LOU-NH91; first compound 2.53 µM
  relative viability: 0.36
LOU-NH91; first compound 8 µM
  relative viability: 0.299
LU99A; first compound 0.08 µM
  relative viability: 0.273
LU99A; first compound 0.8 µM
  relative viability: 0.275
LU99A; first compound 2.53 µM
  relative viability: 0.28
LU99A; first compound 8 µM
  relative viability: 0.279
NCI-H1355; first compound 0.08 µM
  relative viability: 0.764
NCI-H1355; first compound 0.8 µM
  relative viability: 0.847
NCI-H1355; first compound 2.53 µM
  relative viability: 0.837
NCI-H1355; first compound 8 µM
  relative viability: 0.657
NCI-H1650; first compound 0.08 µM
  relative viability: 0.16
NCI-H1650; first compound 0.8 µM
  relative viability: 0.196
NCI-H1650; first compound 2.53 µM
  relative viability: 0.212
NCI-H1650; first compound 8 µM
  relative viability: 0.185
NCI-H1666; first compound 0.08 µM
  relative viability: 1.04
NCI-H1666; first compound 0.8 µM
  relative viability: 1.01
NCI-H1666; first compound 2.53 µM
  relative viability: 1.04
NCI-H1666; first compound 8 µM
  relative viability: 1.01
NCI-H1793; first compound 0.08 µM
  relative viability: 0.175
NCI-H1793; first compound 0.8 µM
  relative viability: 0.192
NCI-H1793; first compound 2.53 µM
  relative viability: 0.207
NCI-H1793; first compound 8 µM
  relative viability: 0.186
NCI-H1915; first compound 0.08 µM
  relative viability: 0.818
NCI-H1915; first compound 0.8 µM
  relative viability: 0.819
NCI-H1915; first compound 2.53 µM
  relative viability: 0.853
NCI-H1915; first compound 8 µM
  relative viability: 0.892
NCI-H1993; first compound 0.08 µM
  relative viability: 0.848
NCI-H1993; first compound 0.8 µM
  relative viability: 0.763
NCI-H1993; first compound 2.53 µM
  relative viability: 1.04
NCI-H1993; first compound 8 µM
  relative viability: 0.963
NCI-H2228; first compound 0.08 µM
  relative viability: 0.148
NCI-H2228; first compound 0.8 µM
  relative viability: 0.13
NCI-H2228; first compound 2.53 µM
  relative viability: 0.228
NCI-H2228; first compound 8 µM
  relative viability: 0.151
NCI-H2347; first compound 0.08 µM
  relative viability: 0.73
NCI-H2347; first compound 0.8 µM
  relative viability: 0.489
NCI-H2347; first compound 2.53 µM
  relative viability: 0.686
NCI-H2347; first compound 8 µM
  relative viability: 0.62
NCI-H23; first compound 0.08 µM
  relative viability: 0.228
NCI-H23; first compound 0.8 µM
  relative viability: 0.212
NCI-H23; first compound 2.53 µM
  relative viability: 0.221
NCI-H23; first compound 8 µM
  relative viability: 0.232
NCI-H460; first compound 0.08 µM
  relative viability: 0.0322
NCI-H460; first compound 0.8 µM
  relative viability: 0.0396
NCI-H460; first compound 2.53 µM
  relative viability: 0.0367
NCI-H460; first compound 8 µM
  relative viability: 0.029
NCI-H520; first compound 0.08 µM
  relative viability: 0.224
NCI-H520; first compound 0.8 µM
  relative viability: 0.29
NCI-H520; first compound 2.53 µM
  relative viability: 0.183
NCI-H520; first compound 8 µM
  relative viability: 0.235
NCI-H650; first compound 0.08 µM
  relative viability: 0.712
NCI-H650; first compound 0.8 µM
  relative viability: 0.986
NCI-H650; first compound 2.53 µM
  relative viability: 0.888
NCI-H650; first compound 8 µM
  relative viability: 0.637
NCI-H838; first compound 0.08 µM
  relative viability: 0.292
NCI-H838; first compound 0.8 µM
  relative viability: 0.449
NCI-H838; first compound 2.53 µM
  relative viability: 0.362
NCI-H838; first compound 8 µM
  relative viability: 0.244
PC-3 [JPC-3]; first compound 0.08 µM
  relative viability: 0.798
PC-3 [JPC-3]; first compound 0.8 µM
  relative viability: 0.752
PC-3 [JPC-3]; first compound 2.53 µM
  relative viability: 0.724
PC-3 [JPC-3]; first compound 8 µM
  relative viability: 0.599
RERF-LC-KJ; first compound 0.08 µM
  relative viability: 1.05
RERF-LC-KJ; first compound 0.8 µM
  relative viability: 1.13
RERF-LC-KJ; first compound 2.53 µM
  relative viability: 1.51
RERF-LC-KJ; first compound 8 µM
  relative viability: 0.55
SW 1573; first compound 0.08 µM
  relative viability: 0.256
SW 1573; first compound 0.8 µM
  relative viability: 0.341
SW 1573; first compound 2.53 µM
  relative viability: 0.252
SW 1573; first compound 8 µM
  relative viability: 0.216
